Laboratory results published in ChEMBL document CHEMBL3808378, “Enantioselective syntheses of both enantiomers of 9'-dehydroxyimperanene and 7,8-dihydro-9'-dehydroxyimperanene and the comparison of biological activity between 9-norlignans and dihydroguaiaretic acids” (Bioorg Med Chem Lett, 2016).
Values after ≈ are worked out from the molar mass of the structure shown.

Columns and labels:
Lolium multiflorum [1] = test: Growth inhibition of Italian ryegrass assessed as reduction in shoot growth at 1 mM after 5 days; type: functional; settings: 120 h, read-out: GI
[2] = Selectivity index, ratio of IC50 for fall armyworm sf9 cells to IC50 for Cytotoxicity against human HeLa cells; type: toxicity, cell-based; settings: fall armyworm and human, read-out: Ratio IC50
[3] = Cytotoxicity against fall armyworm Sf9 cells assessed as reduction in cell viability after 48 hrs by WST-8 reduction assay; type: cell-based; settings: Spodoptera frugiperda, Sf9, 48 h
Colletotrichum lagenaria = test: Antifungal activity against Colletotrichum lagenarium assessed as mycelial colony growth levels at 0.25 mM after 5 days by caliper analysis; type: functional
Bacillus subtilis = test: Antibacterial activity against Bacillus subtilis subsp. subtilis NBRC 13719 after 24 hrs by 2 fold dilution method; type: functional; settings: NBRC 13719, 24 h
Jonesia denitrificans = test: Antibacterial activity against Listeria denitrificans JCM 11481 after 24 hrs by 2 fold dilution method; type: functional; settings: JCM 11481, 24 h
[4] = Antifungal activity against Bipolaris oryzae assessed as mycelial colony growth levels at 0.25 mM after 3 days by caliper analysis; type: functional
Culex pipiens = test: Antilarvicidal activity against Culex pipiens larvae after 24 hrs; type: functional
Lolium multiflorum [5] = test: Growth inhibition of Italian ryegrass assessed as reduction in root growth at 1 mM after 5 days; type: functional; settings: 120 h, read-out: GI
HeLa = test: Cytotoxicity against human HeLa cells assessed as reduction in cell viability after 48 hrs by WST-8 reduction assay; type: functional, cell-based
Alternaria alternata = test: Antifungal activity against Alternaria alternata assessed as mycelial colony growth at 0.25 mM after 3 days by caliper analysis; type: functional
[6] = Selectivity index, ratio of IC50 for fall armyworm Sf9 cells to IC50 for Cytotoxicity against human HL60 cells; type: toxicity, cell-based; settings: fall armyworm and human, read-out: Ratio IC50
Salmonella enterica = test: Antibacterial activity against Salmonella choleraesuis subsp. choleraesuis JCM 6977 after 24 hrs by 2 fold dilution method; type: functional; settings: JCM 6977, 24 h
Fusarium solani = test: Antifungal activity against Fusarium solani assessed as mycelial colony growth levels at 0.25 mM after 3 days by caliper analysis; type: functional
[7] = Cytotoxicity against human HL60 cells assessed as reduction in cell viability after 48 hrs by WST-8 reduction assay; type: functional, cell-based; settings: HL-60, 48 h

Structure (SMILES)	inhibition of growth at 1000 µM (Lolium multiflorum [1])	selectivity ratio [2]	IC50 [3]	Activity (Colletotrichum lagenaria)	MIC (Bacillus subtilis)	MIC (Jonesia denitrificans)	Activity [4]	LD50 (Culex pipiens)	inhibition of growth at 1000 µM (Lolium multiflorum [5])	IC50 (HeLa)	Activity (Alternaria alternata)	selectivity ratio [6]	MIC (Salmonella enterica)	Activity (Fusarium solani)	IC50 [7]
COc1cc(C[C@H](C)[C@@H](C)Cc2ccc(O)c(OC)c2)ccc1O	17.8%	1.3	18 µM	20.1%	1560 µM (≈ 515 µg/mL)	390 µM (≈ 129 µg/mL)	49.9%	4.03 ×10⁻⁵ M	51.9%	24 µM	38%	1.3	3130 µM (≈ 1030 µg/mL)	34.5%	32 µM
COc1cc(CC[C@H](C)Cc2ccc(O)c(OC)c2)ccc1O	19.9%	2	12 µM	43.1%	3130 µM (≈ 990 µg/mL)	1560 µM (≈ 494 µg/mL)	46.4%	9.67 ×10⁻⁵ M	13.3%	6.1 µM	44.4%	2	–	95.4%	5.6 µM
COc1cc(C[C@@H](C)[C@H](C)Cc2ccc(O)c(OC)c2)ccc1O [(-)-DIHYDROGUAIARETICACID]	14.9%	–	29 µM	33.8%	1560 µM (≈ 515 µg/mL)	390 µM (≈ 129 µg/mL)	49.9%	3.52 ×10⁻⁵ M	18.4%	26 µM	32%	–	–	36.5%	22 µM
COc1cc(/C=C/[C@H](C)Cc2ccc(O)c(OC)c2)ccc1O	14.8%	–	32 µM	49.4%	6250 µM (≈ 1960 µg/mL)	3130 µM (≈ 984 µg/mL)	66.4%	11 ×10⁻⁵ M	11.5%	18 µM	66%	–	–	95.7%	14 µM
COc1cc(CC[C@@H](C)Cc2ccc(O)c(OC)c2)ccc1O	2.2%	–	25 µM	39.4%	3130 µM (≈ 990 µg/mL)	1560 µM (≈ 494 µg/mL)	47.2%	9.9 ×10⁻⁵ M	-7.01%	21 µM	32.3%	–	6250 µM (≈ 1980 µg/mL)	70.1%	12 µM
COc1cc(/C=C/[C@@H](C)Cc2ccc(O)c(OC)c2)ccc1O	5.2%	–	30 µM	67.8%	6250 µM (≈ 1960 µg/mL)	3130 µM (≈ 984 µg/mL)	57.6%	48 ×10⁻⁵ M	14.8%	19 µM	43.3%	–	–	96.1%	21 µM
COc1cc(C[C@@H](C)[C@@H](C)Cc2ccc(O)c(OC)c2)ccc1O [MESODIHYDROGUAIARETIC ACID]	20.9%	1.3	17 µM	26%	1560 µM (≈ 515 µg/mL)	1560 µM (≈ 515 µg/mL)	53.7%	5.12 ×10⁻⁵ M	68.8%	28 µM	30%	1.3	–	45.8%	41 µM
